Data set [1] concerns Trichomonas vaginalis. Description: Anti-trichomonal activity against Trichomonas vaginalis assessed as inhibition of parasite growth incubated for 18 hrs. It counts as functional, organism-based.
Data set [2] deals with Mycoplasma genitalium. The data set is described as follows: Antibacterial activity against Mycoplasma genitalium G37C assessed as bacterial growth inhibition incubated for 7 days by phenol red reagent based microbroth dilution assay. In kind it is functional. As to conditions: Mycoplasmoides genitalium, 168 h, time 7 day. In general terms: In broth dilution the organism is exposed to a series of concentrations in liquid medium.

Data set [3] can be described thus: Selectivity index, ratio of IC50 for cytotoxicity against african green monkey Vero cells incubated for 48 hrs by celltiter blue assay to EC50 for anti-trichomonal activity against Trichomonas vaginalis assessed as inhibition of parasite growth incubated for 18 hrs. In kind it is toxicity, cell-based. Particulars: read-out: Ratio IC50/EC50.
Data set [4] in a line: Selectivity index, ratio of IC50 for cytotoxicity against african green monkey Vero cells incubated for 48 hrs by celltiter blue assay to MIC for antibacterial activity against Mycoplasma genitalium G37C assessed as bacterial growth inhibition incubated for 7 days by phenol red reagent based microbroth dilution assay. In kind it is toxicity, cell-based. As to conditions: read-out: Selectivity Index. For orientation: The colour change of resazurin is a common sign of viable cells or microbes.

Data set [5] can be described thus: Selectivity index, ratio of IC50 for cytotoxicity against african green monkey Vero cells incubated for 48 hrs by celltiter blue assay to IC50 for antibacterial activity against Mycoplasma genitalium Sea-1 assessed as bacterial growth inhibition incubated for 30 mins by qPCR analysis. As to conditions: read-out: Ratio IC50. It counts as toxicity, cell-based.
The nature of data set [6]: Selectivity index, ratio of IC50 for cytotoxicity against african green monkey Vero cells incubated for 48 hrs by celltiter blue assay to IC50 for antibacterial activity against Mycoplasma genitalium G37C assessed as bacterial growth inhibition incubated for 30 mins by qPCR analysis. In kind it is toxicity, cell-based. As to conditions: read-out: Ratio IC50.
Data set [7] relates to Mycoplasma genitalium. Description: Antibacterial activity against Mycoplasma genitalium G37C assessed as bacterial growth inhibition incubated for 30 mins by qPCR analysis. It counts as functional, organism-based. Particulars: Mycoplasmoides genitalium, 0.5 h. In general terms: Real-time PCR tracks product formation cycle by cycle.
Data set [8] relates to Mycoplasma genitalium. Description: Antibacterial activity against Mycoplasma genitalium Sea-1 assessed as bacterial growth inhibition incubated for 30 mins by qPCR analysis. In kind it is functional, organism-based. As to conditions: Mycoplasmoides genitalium, Sea-1, 0.5 h.
Data set [9] relates to Mycoplasma genitalium. The data set is described as follows: Antibacterial activity against Mycoplasma genitalium Sea-2 assessed as bacterial growth inhibition incubated for 30 mins by qPCR analysis. In kind it is functional, organism-based. Particulars: Mycoplasmoides genitalium, Sea-2, 0.5 h.
Data set [10] in a line: Selectivity index, ratio of IC50 for cytotoxicity against african green monkey Vero cells incubated for 48 hrs by celltiter blue assay to IC50 for antibacterial activity against Mycoplasma genitalium Sea-2 assessed as bacterial growth inhibition incubated for 30 mins by qPCR analysis. It counts as toxicity, cell-based. Particulars: read-out: Ratio IC50.
In data set [11] the test system is Mycoplasma genitalium. Description: Antibacterial activity against Mycoplasma genitalium G37C assessed as growth inhibition at 2 uM relative to control. It counts as functional. As to conditions: Mycoplasmoides genitalium.
Data set [12] has as its system Mycoplasma genitalium. The data set is described as follows: Antibacterial activity against Mycoplasma genitalium G37C assessed as growth inhibition at 3 uM measured after 1 month relative to control. It counts as functional, organism-based. As to conditions: Mycoplasmoides genitalium, time 1.0 months.
Data set [13] has as its system Mycoplasma genitalium. Description: Antibacterial activity against Mycoplasma genitalium G37C assessed as growth inhibition at 0.4 uM relative to control. It counts as functional. As to conditions: Mycoplasmoides genitalium.
Data set [14] relates to Mycoplasma genitalium. The data set is described as follows: Antibacterial activity against Mycoplasma genitalium G37C assessed as growth inhibition at 0.6 uM measured after 1 month relative to control. Particulars: Mycoplasmoides genitalium, time 1.0 months. In kind it is functional, organism-based.

The values below come from ChEMBL document CHEMBL6071196, “Semisynthetic Tetramate-Containing Fungal Metabolites with Activity against Trichomonas vaginalis and Mycoplasma genitalium” (ACS Med Chem Lett, 2024).

≈ marks a conversion by molar mass, not a printed value. Calls of active or inactive are those of the source. No cut-off for these calls is given here. Bounds are passed on as bounds.

Consider `CCCCC[C@H]1[C@@H](C)C[C@H]2C[C@@H](C)CC[C@@H]2[C@@]1(C)/C(O)=C1\C(=O)[C@@H](CO)N(C)C1=O`, for which, in data set [1], the EC50 turned out to be 2100 nM. Besides, in [2], the MIC90 is 0.5 µM (≈ 0.21 µg/mL). For the same compound, the selectivity ratio at 48 h in [3] is > 16; in data set [4], 64.
As to `C/C=C/[C@@H]1C=C[C@@H]2C[C@H](C)CC[C@H]2[C@]1(C)/C(O)=C1/C(=O)N[C@@H](CO)C1=O`, the half-maximal effective concentration (EC50) in [1] was 2500 nM. Moreover, in data set [2], the MIC90 came to 2.2 µM (≈ 0.791 µg/mL). For the same compound, the selectivity ratio at 48 h came out at 35.9 in data set [3] and 40 in [4].
For `CCCCC[C@H]1[C@H](C)C[C@H]2C[C@@H](C)CC[C@@H]2[C@@]1(C)/C(O)=C1\C(=O)[C@@H](CO)N(C)C1=O`, in that order: 2700 nM, 3.8 µM (≈ 1.59 µg/mL), 72.6 and 51.6.
On to `CCCCCC1=C(C)C[C@H]2C[C@@H](C)CC[C@@H]2[C@@]1(C)/C(O)=C1\C(=O)[C@@H](CO)N(C)C1=O`, for which the EC50 in data set [1] is > 10000 nM. For the same compound, the MIC90 in data set [2] came to 29.9 µM (≈ 12.5 µg/mL). Moreover, the results for the selectivity ratio at 48 h in [3] and in data set [4] were > 8 and 13.1, respectively.
With `C#CCOC[C@@H]1C(=O)/C(=C(/O)[C@@]2(C)[C@@H](/C=C/C=C/C[C@@H](C)O)C(C)=C[C@H]3C[C@@H](C)CC[C@@H]32)C(=O)N1C`, in data set [1], the concentration for a half-maximal effect (EC50) amounted to 3900 nM. Further, the MIC90 in [2] is 6.3 µM (≈ 3.12 µg/mL). Besides, the values for the selectivity ratio at 48 h in data set [3] and in [4] were 24.3 and 15.1, respectively.
For the compound `C/C=C/C=C/[C@H]1C(C)=C[C@H]2C[C@@H](C)CC[C@@H]2[C@@]1(C)/C(O)=C1\C(=O)[C@H](COCc2cn(CCc3ccc(O)cc3)nn2)N(C)C1=O`, in data set [1], the EC50 was > 10000 nM. Moreover, the MIC90 in data set [2] came to 2.6 µM (≈ 1.6 µg/mL). The selectivity ratio at 48 h in data set [4] was found to be 29.7; in data set [5], 96; in [6] it was 64; in data set [10] it was 77. Besides, the IC50 was 1200 nM in [7], 800 nM in data set [8] and 1000 nM in data set [9]. The inhibition at 2 µM in data set [11] stood at 90%. The inhibition entry in data set [12] was “inactive”.
`C/C=C/[C@@H]1C=C[C@@H]2C[C@H](C)CC[C@H]2[C@]1(C)/C(O)=C1\C(=O)[C@H](CO)N(C)C1=O`: the EC50 in data set [1] was determined as 3000 nM. The MIC90 in data set [2] amounted to 0.3 µM (≈ 0.112 µg/mL). In addition, the selectivity ratio at 48 h in [3] was determined as 4.2; in data set [4], 46.9.
The like results for `CCCCC[C@H]1C(C)=C[C@H]2C[C@@H](C)CC[C@@H]2[C@@]1(C)/C(O)=C1\C(=O)[C@@H](CO)N(C)C1=O` were, in that order, 710 nM, 3.8 µM (≈ 1.59 µg/mL), > 170 and 32.
Turning to `C/C=C/C=C/[C@H]1C(C)=C[C@H]2C[C@@H](C)CC[C@@H]2[C@@]1(C)/C(O)=C1\C(=O)[C@@H](CO)N(C)C1=O`, in data set [1], the EC50 came to 1800 nM. Besides, the MIC90 in data set [2] was 0.4 µM (≈ 0.165 µg/mL). The selectivity ratio at 48 h in data set [3] stood at 32.1; in data set [4], 141. In data set [13], the inhibition at 0.4 µM turned out to be 90%. In [14], the inhibition entry was “inactive”.
Consider `C/C=C/C=C/[C@H]1C(C)=C[C@H]2C[C@@H](C)CC[C@@H]2[C@@]1(C)/C(O)=C1/C(=O)N[C@H](CO)C1=O`, for which the EC50 in data set [1] worked out at 800 nM. The MIC90 in data set [2] worked out at 1 µM (≈ 0.4 µg/mL). Moreover, the selectivity ratio at 48 h worked out at 119 in data set [3] and 94.8 in [4].
The like results for `CC1=C[C@H]2C[C@@H](C)CC[C@@H]2[C@@](C)(/C(O)=C2\C(=O)[C@@H](CO)N(C)C2=O)[C@H]1/C=C/C=C/C[C@@H](C)O` were, in that order, 60 nM, 0.9 µM (≈ 0.412 µg/mL), 315 and 23.8.
Regarding `CC1=C[C@H]2C[C@@H](C)CC[C@@H]2[C@@](C)(/C(O)=C2\C(=O)[C@H](COCc3cn(CC4CCCCO4)nn3)N(C)C2=O)[C@H]1/C=C/C=C/C[C@@H](C)O` (some centres undefined), the selectivity ratio at 48 h in data set [3] is 19.6.
As for `C/C=C/C=C/[C@H]1C(C)=C[C@H]2C[C@@H](C)CC[C@@H]2[C@@]1(C)/C(O)=C1\C(=O)[C@@H](COCc2cn(Cc3ccc(C(=O)O)cc3)nn2)N(C)C1=O`, in data set [1], the EC50 was 2200 nM. The MIC90 in data set [2] is 19.9 µM (≈ 12.5 µg/mL). Besides, the selectivity ratio at 48 h in data set [3] was found to be 12.8; in [4], 1.5.
As to `C/C=C/C=C/[C@H]1C(C)=C[C@H]2C[C@@H](C)CC[C@@H]2[C@@]1(C)/C(O)=C1\C(=O)[C@@H](COC)N(C)C1=O`, the EC50 in data set [1] was > 10000 nM. Moreover, in [2], the MIC90 is 3.7 µM (≈ 1.58 µg/mL). For the same compound, the selectivity ratio at 48 h in data set [4] is 6.7.
Regarding `C/C=C/C=C/[C@H]1C(C)=C[C@H]2C[C@@H](C)CC[C@@H]2[C@@]1(C)/C(O)=C1\C(=O)[C@H](COCc2cn(CC3CCCCO3)nn2)N(C)C1=O` (some centres undefined), the EC50 in data set [1] was > 10000 nM. Besides, the MIC90 in data set [2] was 5.2 µM (≈ 3.08 µg/mL). In addition, the selectivity ratio at 48 h in data set [4] stood at 4.4.

For orientation: EC50 means the concentration needed to bring the measured effect to its halfway point. For orientation: MIC90 means the lowest concentration that inhibits either 90% of growth or 90% of the strains tested, depending on the study. Broadly, the IC50 is the concentration needed to halve the response being measured. In general, inhibition refers to the share of the control response that was lost under treatment.
